For 7 molecules, Km results are on record in article PMC3166973 (Journal of structural biology, 2011).

Changes are numbered by the printed parent chain. In names and notes the source's numbering stands.

The target of series [1] is T1, pjDHFR (Pneumocystis jirovecii, UniProt Q9UUP5).
T1 sequence (Q9UUP5 1-206): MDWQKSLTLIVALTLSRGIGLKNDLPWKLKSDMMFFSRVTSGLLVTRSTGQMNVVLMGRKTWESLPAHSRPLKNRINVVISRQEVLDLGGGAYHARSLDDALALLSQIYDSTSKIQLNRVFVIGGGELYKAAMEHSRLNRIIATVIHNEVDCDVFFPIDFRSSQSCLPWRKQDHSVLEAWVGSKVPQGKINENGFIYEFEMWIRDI
In words: Standard DHFR assay. Conditions: read-out: Km NADPH, substrate at saturating concentration.

Series [2] addresses T2, hDHFR (Homo sapiens, UniProt P00374).
T2 sequence (P00374 1-187): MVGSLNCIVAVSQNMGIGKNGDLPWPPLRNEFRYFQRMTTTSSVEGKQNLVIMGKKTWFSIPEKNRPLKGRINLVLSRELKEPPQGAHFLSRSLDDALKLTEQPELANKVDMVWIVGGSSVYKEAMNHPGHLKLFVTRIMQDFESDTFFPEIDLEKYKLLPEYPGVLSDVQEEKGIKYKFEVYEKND
In words: Standard DHFR assay, kinetic constants. It is filed as biochemical. Conditions: read-out: Km NADPH; wild type hDHFR.

The target of series [3] is T3, hDHFR Q35S (Homo sapiens, UniProt P00374, Q36S).
T3 sequence (P00374 1-187 Q36S): T2 sequence (P00374 1-187) with Q36S
Put plainly: Standard DHFR assay, kinetic constants. It is filed as biochemical. Conditions: read-out: Km NADPH.

Series [4] deals with pcDHFR (Pneumocystis carinii, UniProt P16184). It is filed as biochemical. Conditions: read-out: Km NADPH.
pcDHFR, sequence (P16184 whole entry): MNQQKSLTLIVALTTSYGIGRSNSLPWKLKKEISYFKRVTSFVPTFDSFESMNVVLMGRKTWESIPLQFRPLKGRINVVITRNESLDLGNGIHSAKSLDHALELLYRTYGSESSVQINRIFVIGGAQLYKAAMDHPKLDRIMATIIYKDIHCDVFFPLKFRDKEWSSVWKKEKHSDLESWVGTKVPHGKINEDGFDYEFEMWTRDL
For series [5], the target named is T4, hDHFR Q35S/N64F (Homo sapiens, UniProt P00374, N65F/Q36S).
T4 sequence (P00374 1-187 Q36S/N65F): T2 sequence (P00374 1-187) with Q36S, N65F
Put plainly: Standard DHFR assay, kinetic constants. Type of series: biochemical. Conditions: read-out: Km NADPH.

Series [6] addresses T5, hDHFR Q35K/N64F (Homo sapiens, UniProt P00374, N65F/Q36K).
T5 sequence (P00374 1-187 Q36K/N65F): T2 sequence (P00374 1-187) with Q36K, N65F
Put plainly: Standard DHFR assay, kinetic constants. Type of series: biochemical. Conditions: read-out: Km NADPH.

Series [7] has as its target T6, hDHFR Q35S/N64S (Homo sapiens, UniProt P00374, N65S/Q36S).
T6 sequence (P00374 1-187 Q36S/N65S): T2 sequence (P00374 1-187) with Q36S, N65S
In words: Standard DHFR assay, kinetic constants. Type of series: biochemical. Conditions: read-out: Km NADPH.

Series [8] has as its target T7, hDHFR N64S (Homo sapiens, UniProt P00374, N65S).
T7 sequence (P00374 1-187 N65S): T2 sequence (P00374 1-187) with N65S
In words: Standard DHFR assay, kinetic constants. Conditions: read-out: Km NADPH. Type of series: biochemical.

Series [9] addresses T8, hDHFR Q35K (Homo sapiens, UniProt P00374, Q36K).
T8 sequence (P00374 1-187 Q36K): T2 sequence (P00374 1-187) with Q36K
In words: Standard DHFR assay, kinetic constants. Type of series: biochemical. Conditions: read-out: Km NADPH.

For series [10], the target named is T9, hDHFR Q35K/N64S (Homo sapiens, UniProt P00374, N65S/Q36K).
T9 sequence (P00374 1-187 Q36K/N65S): T2 sequence (P00374 1-187) with Q36K, N65S
In words: Standard DHFR assay, kinetic constants. Conditions: read-out: Km NADPH. Type of series: biochemical.

Series [11] concerns the target T10, hDHFR N64F (Homo sapiens, UniProt P00374, N65F).
T10 sequence (P00374 1-187 N65F): T2 sequence (P00374 1-187) with N65F
In words: Standard DHFR assay, kinetic constants. Conditions: read-out: Km NADPH. Type of series: biochemical.

Substrate in series [12]: Nc1nc2c(c(=O)[nH]1)N=C(CNc1ccc(C(=O)N[C@@H](CCC(=O)O)C(=O)O)cc1)CN2
Put plainly: purified protein, by the assay type. Conditions: pH 7.4.

On to `NC(=O)C1=CN([C@@H]2O[C@H](COP(=O)(O)OP(=O)(O)OC[C@H]3O[C@@H](n4cnc5c(N)ncnc54)[C@H](OP(=O)(O)O)[C@@H]3O)[C@@H](O)[C@H]2O)C=CC1` [NADPH], for which the Km in series [1] was 19 ± 1 µM; in series [2], 4.5 ± 1.2 µM; in [3], 3.8 ± 1.4 µM; in [4] it was 16 ± 2 µM; in series [5], 5.6 ± 0.5 µM; in series [6], 5.7 ± 1.1 µM. For the same molecule, the Km in series [7] came out at 5.3 ± 1.5 µM; in series [8] it was 6.3 µM; in series [9] it was 12.5 µM; in series [10] it was 6.6 ± 1.8 µM; in series [11], 7.5 ± 3.1 µM.

B1: hDHFR Q35K/N64S (Homo sapiens; N65S/Q36K) (protein)
chain: T2 sequence (P00374 1-187) with Q36K, N65S
As for B1, the Km in [12] (other: hDHFR Q35K/N64S, 37.0 °C) is 0.7 ± 0.2 (n=6) μM.

B2: hDHFR Q35S (Homo sapiens; Q36S) (protein)
chain: T2 sequence (P00374 1-187) with Q36S
B2: in [12] (other: hDHFR Q35S, 37.0 °C), the Km was 0.7 ± 0.2 (n=4) μM.

B3: hDHFR (Homo sapiens) (protein)
chain: T2 sequence (P00374 1-187)
Turning to B3, in [12] (other: wild type hDHFR, 37.0 °C), the Km is 0.7 ± 0.1 (n=8) μM.

B4: hDHFR N64S (Homo sapiens; N65S) (protein)
chain: T2 sequence (P00374 1-187) with N65S
Regarding B4, the Km in series [12] (other: hDHFR N64S, 37.0 °C) was 0.9 ± 0.3 (n=3) μM.

B5: hDHFR Q35S/N64F (Homo sapiens; N65F/Q36S) (protein)
chain: T2 sequence (P00374 1-187) with Q36S, N65F
Take B5: the Km in [12] (other: hDHFR Q35S/N64F, 37.0 °C) is given as 0.7 ± 0.2 (n=5) μM.

B6: pjDHFR (Pneumocystis jirovecii) (protein)
chain: T1 sequence (Q9UUP5 1-206)
With B6, the Km in series [12] (other: pjDHFR, cofactor at saturating concentration) is reported as 2.2 ± 0.2^1 (n=13) μM.
